According to EP4464318A1, “TARGETING TGF-B-ACTIVATED KINASE-1 ACTIVATION IN THE TREATMENT OF NEUROINFLAMMATORY CONDITIONS” (Albert-Ludwigs-Universität Freiburg, priority 2023, dated 2024):
pIC50, pKi: −log10 of the molar value.

Columns and labels:
TAK1 = target: T1, TAK1 (Homo sapiens, UniProt O43318); conditions: cited from earlier work
T1 sequence (O43318 1-606): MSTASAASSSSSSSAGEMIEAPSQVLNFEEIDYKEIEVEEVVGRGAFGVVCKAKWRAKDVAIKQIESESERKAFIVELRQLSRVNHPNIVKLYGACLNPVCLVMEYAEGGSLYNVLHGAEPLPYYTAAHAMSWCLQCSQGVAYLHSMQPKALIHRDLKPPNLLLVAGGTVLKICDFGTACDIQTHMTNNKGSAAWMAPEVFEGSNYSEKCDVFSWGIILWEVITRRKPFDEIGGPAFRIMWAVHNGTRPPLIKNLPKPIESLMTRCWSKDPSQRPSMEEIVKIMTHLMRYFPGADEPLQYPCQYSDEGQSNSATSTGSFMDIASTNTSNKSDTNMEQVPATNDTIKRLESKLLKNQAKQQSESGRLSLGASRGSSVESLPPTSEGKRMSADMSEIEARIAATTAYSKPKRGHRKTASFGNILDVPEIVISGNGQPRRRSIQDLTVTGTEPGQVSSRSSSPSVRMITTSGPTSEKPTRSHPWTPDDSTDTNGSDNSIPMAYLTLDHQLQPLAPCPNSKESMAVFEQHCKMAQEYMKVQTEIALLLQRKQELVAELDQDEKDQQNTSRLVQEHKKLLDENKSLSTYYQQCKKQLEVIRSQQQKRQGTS

[1] = system: microglia (CD45lo CD11b+); assay: Microglial depletion: flow cytometry of CNS cells of B-ALL bearing mice; type: in vivo
Method: (§1) Mice received PLX5622 (CSF1R inhibitor) chow or control chow (Research Diets) for 7 days prior to the experiment to achieve microglial depletion. C57BI/6 mice were irradiated with 5.5 Gy and transplanted with 2×10^5 E2A-PBX1 cell lines. 10×10^6 CD19 CAR T were injected on day 7 and behaviour studies were performed on day 10. Mice were maintained on PLX5622 chow or control chow throughout the duration of the experiment. The effectiveness of microglia depletion was determined by flow cytometry.
(§2) The CNS cells were isolated as described previously (20a) with modifications. Briefly, the mice were anesthetized and were perfused with 1X cold PBS. The CNS was isolated, homogenized and filtered through a 70 µm nylon filter. The homogenate was suspended in 37% isotonic Percoll solution and centrifuged at 800 × g for 30 min without a break in application. The myelin layer was removed from the top of 37% Percoll and the pelleted cells were washed with 1X PBS for further analysis.

[2] = system: B-ALL (E2A-PBX1) bearing mice treated with CD19 CAR T cells; assay: Grip strength test; type: in vivo
Method: (§3) Mice were treated with either takinib (Selleckchem, Germany) or vehicle after B-NHL or B-ALL transplantation. For the treatment, stocks of 3 mg/ml and 10 mg/ml of takinib were prepared in DMSO. The stocks were diluted in 0.5% carboxymethylcellulose solution (vehicle) and administered by intraperitoneal injection at a dosage of 0.15 mg/kg (takinib-FACS) and 0.5 mg/kg (survival and behaviour studies) per mouse per day from day 3 to day 9 following either B-NHL or B-ALL transplant, as described previously (13a). An equal volume of corresponding vehicles was administrated to the control groups daily from day 3 until day 9. For survival expriments, 0.5 mg/kg takinib or vehicle per mouse per day was administered intraperitonially from day 3 to day 11 following either B-NHL or B -ALL transplant, as described previously.
(§4) The E2A-PBX1 cell line (15a) was provided by Dr. Federico Simonetta (Stanford, USA). C57BI/6 recipients were sublethally irradiated with 5.5 Gy and transplanted with 2×10^5 E2A-PBX1 cells intravenously. […] The mice were perfused with ice cold PBS on day 10 and the CNS was analysed. […]
Mice received PLX5622 (CSF1R inhibitor) chow or control chow (Research Diets) for 7 days prior to the experiment to achieve microglial depletion. […] The effectiveness of microglia depletion was determined by flow cytometry. […]

[3] = system: B-ALL (E2A-PBX1) bearing mice treated with CD19 CAR T cells; assay: BBB leakage (FITC-dextran extravasation) in the CNS; type: in vivo
Method: as §3, §4
(§5) Mice received PLX5622 (CSF1R inhibitor) chow or control chow (Research Diets) for 7 days prior to the experiment to achieve microglial depletion. […] The effectiveness of microglia depletion was determined by flow cytometry.

[4] = system: B-ALL (E2A-PBX1) bearing mice treated with CD19 CAR T cells; assay: Novel object recognition test; type: in vivo; conditions: CAR19 T cells, CSF1R inhibitor diet vs control diet, from one week prior to tumor injection (Fig. 4)
Method: as §3, with “For survival expriments, 0.5 mg/kg takinib or vehicle per mouse per day was administered intraperitonially from day 3 to day 11 following either B-NHL or B -ALL transplant, as described previously.” left out
(§6) The E2A-PBX1 cell line (15a) was provided by Dr. Federico Simonetta (Stanford, USA). […] The mice were perfused with ice cold PBS on day 10 and the CNS was analysed. […]
as §5
Novel object recognition test was performed as described previously with modifications (17a). […] The amount of time spent by the mouse exploring the novel object to the total exploration time is calculated as an index of recognition memory.

B-ALL (E2A-PBX1) = assay: Tumor burden and myeloid cells in spleen and BM of B-ALL bearing mice on CSF1R inhibitor diet; type: in vivo
Method: as §1

[5] = system: B-ALL (E2A-PBX1) bearing mice treated with CD19 CAR T cells; assay: Elevated plus maze test; type: in vivo; conditions: CAR19 T cells, CSF1R inhibitor diet vs control diet, from one week prior to tumor injection (Fig. 4)
Method: as §3, §6, §5
We performed the elevated plus maze test to evaluate the anxiety behaviour in mice as described previously with minor modifications (18a). […] We quantified the time they spent in the open arm in minutes. […]

B-NHL (A20) bearing mice = assay: Survival of B-NHL (A20) bearing mice that received CD19 CAR T cells; type: in vivo
Method: as §3
A20 Luc^+ GFP^+ immortalized murine lymphoma cell lines were used to induce B-NHL in mice. […] The mice were perfused with Ice cold PBS on day 10 and CNS was analysed. […]
(§7) For sample size in the murine survival experiments a power analysis was performed. A sample size of at least n=8 per group was determined by 80% power to reach a statistical significance of 0.05 in order to detect an effect size of at least 1.06. Differences in animal survival (Kaplan-Meier survival curves) were analyzed by Mantel Cox test. […]

[6] = system: microglia (CD45lo CD11b+); assay: Flow cytometry of microglia from the CNS of B-NHL (A20) bearing mice treated with CD19 CAR T cells; type: in vivo
Method: as §3
(§8) A20 Luc^+ GFP^+ immortalized murine lymphoma cell lines were used to induce B-NHL in mice. BALB/c recipients were sublethally irradiated with 4.5 Gy and transplanted with 1×10^6 A20 Luc^+ GFP^+ intravenously. 7 days later 10×10^6 syngeneic CD19 CAR T cells generated from BALB/c mice were administered. The mice were perfused with Ice cold PBS on day 10 and CNS was analysed. For survival experiments BALB/c recipients were sublethally irradiated with 4.5 Gy and transplanted intravenously with 1×10^5 A20 Luc^+ GFP^+ cells. Seven days later 5×10^6 syngeneic CD19 CAR T cells from BALB/c mice were administered. Tumor burden was checked by bioluminescence imaging.
as §2

B-NHL (A20) = B-NHL (A20) lymphoma burden in vivo (bioluminescence, CD19+ cells in bone marrow); conditions: CAR19/takinib vs CAR19/vehicle treated mice (Fig. 8a,b)
Method: as §3
as §8, with “Seven days later 5×10^6 syngeneic CD19 CAR T cells from BALB/c mice were administered. Tumor burden was checked by bioluminescence imaging.” left out

CD19 CAR T cells = assay: T cell markers and T cell viability in co-culture of B-NHL and NT/CD19 CAR T cells; type: cell-based
Method: (§9) B-NHL cells were labelled with cell trace violet (Invitrogen) as per the manufacturer's instructions. B-NHL cells and NT or CD19 CAR T cells were cultured with 0:1, 1:1, 1:5 and 1:10 ratios for 16-20h. Post-incubation cells were washed and stained for live dead zombie stain and specific lysis was calculated. For analyzing the expression of T cell markers, B-NHL and NT or CD19 CAR T cells were co-cultured at a ratio of 1:5 for 16-20h and treated with either 10µM of takinib or vehicle.

B-NHL (A20) cells [7] = assay: Viability of B-NHL (A20) cells, 24h; type: cell-based, murine; conditions: indicated concentrations of takinib, 24h (Fig. 28a)
B-NHL (A20) cells [8] = assay: Co-culture of B-NHL (A20) cells with NT or CD19 CAR T cells in vitro; type: cell-based; conditions: co-culture E:T 5:1, 10µM takinib or vehicle (Fig. 8c)
Method: A20 Luc^+ GFP^+ cells were stained with cell trace violet as per the manufacturer's instructions (Life Technologies). A20 Luc^+ GFP^+ cells and CD19 CAR T cells were incubated at ratios 1:1, 2:1, 5:1, and 10:1 for 16h at 37° C. Following incubation, cells were harvested and stained with live/dead far red fixable viability stain (Invitrogen).
as §9

[9] = system: B-ALL (E2A-PBX1) bearing mice; assay: Survival of B-ALL (E2A-PBX1) bearing mice that received CD19 CAR T cells; type: in vivo
Method: as §3, §6, §7

B-ALL (E2A-PBX1) cells = assay: Viability of B-ALL (E2A-PBX1) cells, 24h; type: cell-based, murine; conditions: indicated concentrations of takinib, 24h (Fig. 28b)
[10] = system: NK1.1+, CD45+, CD11b+ and CD3+ cells; assay: Immune cell counts in spleen and BM of B-NHL (A20) bearing mice that received CD19 CAR T cells; type: in vivo; conditions: takinib i.p. day 3 to day 9 vs vehicle (Fig. 24, 25)
Method: as §3
as §8, with “Seven days later 5×10^6 syngeneic CD19 CAR T cells from BALB/c mice were administered. Tumor burden was checked by bioluminescence imaging.” left out

CCCn1c(NC(=O)c2cccc(C(N)=O)c2)nc2ccc(CN3CCCCC3)cc21 [HS-276]
pIC50 (TAK1): 8.64 | pKi (TAK1): 8.60

COc1ncc(F)cc1CNc1ccc(Cc2c[nH]c3ncc(C)cc23)c(F)n1 [PLX5622]
microglia numbers ([1]; PLX5622 diet day -7 to day 10 vs control (Fig. 21b-d)): declined | CD45hi, Ly6G+ and Ly6C+ myeloid cells infiltrating the CNS ([1]; PLX5622 diet vs control diet (Fig. 21e-g)): no significant changes | grip strength ([2]; CAR19 T cells, CSF1R inhibitor diet vs control diet (Fig. 4)): no difference | BBB leakage ([3]; CAR19 T cell-treated mice, CSF1R inhibitor (PLX5622) diet vs control diet (Fig. 23)): did not reduce | neurocognitive deficits, novel object recognition test [4]: improved neurocognitive deficits | Ly6C+ and F4/80+ myeloid cells in the spleen (B-ALL (E2A-PBX1); CSF1R inhibitor diet vs control diet (Fig. 22c,d)): no impact | lymphoma burden in spleen and BM (B-ALL (E2A-PBX1); CSF1R inhibitor prior to CAR19 T cell transfer vs vehicle-treated mice (Fig. 22a,b)): did not reduce | neurocognitive deficits, elevated plus maze test [5]: improved neurocognitive deficits

COCCN1CCN(Cc2ccc(-c3n[nH]c4c3C(=O)c3c(NC(=O)NN5CCOCC5)cccc3-4)cc2)CC1 [RGB-286638 free base]
pIC50 (TAK1): 8.30

CCCn1/c(=N/C(=O)c2cccc(C(N)=O)c2)[nH]c2ccccc21 [Takinib]
survival (B-NHL (A20) bearing mice; CAR19/takinib vs CAR19/vehicle treated B-NHL bearing mice, 0.5 mg/kg i.p. (Fig. 8d)): survived longer | grip strength ([2]; CAR19 T cells + takinib vs vehicle (Fig. 6l)): no difference | expression of TNF in microglia ([6]; takinib 0.15 mg/kg per mouse per day i.p. day 3 to day 9 vs vehicle (Fig. 6b,c)): reduced expression | p38 phosphorylation in microglia ([6]; takinib 0.15 mg/kg per mouse per day i.p. day 3 to day 9 vs vehicle (Fig. 6f,g)): reduced | expression of GM-CSF in microglia ([6]; takinib 0.15 mg/kg per mouse per day i.p. day 3 to day 9 vs vehicle (Fig. 6d,e)): reduced expression | p70s6K total protein in microglia ([6]; takinib 0.5 mg/kg per mouse per day i.p. day 3 to day 9 vs vehicle (Fig. 6h,i)): reduced | BBB leakage in the cortex ([3]; B-ALL (E2A-PBX1) bearing mice after CAR19 T cell transfer, takinib vs vehicle (Fig. 6m, 26a)): trend towards a lower BBB leakage | B-NHL (A20) lymphoma burden (B-NHL (A20)): decreased | markers of cytotoxicity including perforin, CD107a, IFN-y, and TNF (CD19 CAR T cells; CD3+ T cells, co-culture 1:5, 10µM takinib or vehicle (Fig. 29a-g)): remained unaffected | viability of CAR19 or NT T cells (CD19 CAR T cells; co-culture with B-NHL (A20), 10µM takinib or vehicle (Fig. 29h)): remained unaffected | cell death of B-NHL (A20) cells (B-NHL (A20) cells [7]): dose-dependent cell death | cytotoxicity against B-NHL (A20) in vitro (B-NHL (A20) cells [8]): increased cytotoxicity | survival ([9]; CAR19/takinib vs CAR19/vehicle, E2a-PBX1 model, 0.5 mg/kg i.p. (Fig. 8f)): increased | cell death of B-ALL (E2A-PBX1) cells (B-ALL (E2A-PBX1) cells): dose-dependent cell death | myeloid cell, T cell or NK cell counts in the periphery [10]: did not reduce

C[C@]12C=CC(=O)C=C1CC[C@@H]1[C@@H]2[C@@H](O)C[C@@]2(C)[C@H]1CC[C@]2(O)C(=O)CO [prednisolone]
protective effect of CAR19 T cells against lymphoma growth (B-NHL (A20) bearing mice; B-NHL (A20) bearing mice, prednisolone day 3 to day 9 (Fig. 8e)): reduced | protective effect of CAR19 T cells against leukemia expansion ([9]; B-ALL (E2a-PBX1) bearing mice, prednisolone day 3 to day 9 (Fig. 8g)): reduced
